Tested on: db/db mice
Experiment: In vivo assay in db/db mice (model of postprandial glycemia)
Conditions: db/db mice fasted 20 hours, 50 mg/kg p.o., 4 hrs after drug administration, compared to vehicle-treated animals (Group 1)
Experimental: In Vivo Assay in db/db Mice
The following assay aims at determining the anti-diabetic effect of the test compounds of formula (I) in a model of postprandial glycemia in db/db mice, in vivo.
The assay was performed as follows:
A total of 18 db/db mice (about 8-9 weeks; obtained from IFFACREDO, l'Arbreste, France) were fasted during 20 hours.
3 groups, each consisting of 6 animals were formed: • Group 1: The animals were administered (per os) a dose of 10 mg/kg of vehicle. • Group 2: The animals were administered (per os) a dose of 30 mg/kg of the test compound according to formula (I). • Group 3: The animals were administered (per os) a dose of 50 mg/kg of the test compound according to formula (I).
After oral administration of the compounds of formula (I) solubilized or suspended in CarboxyMethylCellulose (0.5%), Tween 20 (0.25%) and water as vehicle, the animals had access to commercial food (D04, UAR, Villemoisson/Orge, France) ad libitum. The diabetic state of the mice was verified by determining the blood glucose level before drug administration. Blood glucose and serum insulin levels were then determined 4 hrs after drug administration. […]
Changes in blood glucose and serum insulin of drug treated mice were expressed as a percentage of control (group 1: vehicle treated mice).

In the case of `CCCCNC1CCN(S(=O)(=O)c2ccc(CNC(=O)c3ccc(Cl)cc3)s2)CC1` [4-chloro N-[(5-{[(butylamino)piperidin-1-yl]sulfonyl}thien-2-yl)methyl]benzamide], the “decrease in the (serum/blood) insulin level” value (ELISA) is reported as 61% and the “decrease in blood glucose level induced by food intake” value is reported as 42%.
